The target of one experiment is T1, BTK-WT (Homo sapiens, UniProt Q06187).
T1 construct: purified from insect cells as a full-length construct containing an N-terminal 6X-His tag; His6 (N); made in house; host or cells: insect cells (baculovirus Sf21 in Method B)
Briefly: Btk in vitro inhibitory activity (one of Method A TR-FRET, Method B electrophoretic mobility shift, Method C radiometric filter binding). The experiment is classed as biochemical. Particulars: D-compounds panel data; read-out: IC50 BTK-WT.

The target in a further experiment is T2, TEC (Homo sapiens, UniProt P42680).
T2 sequence (P42680 1-631): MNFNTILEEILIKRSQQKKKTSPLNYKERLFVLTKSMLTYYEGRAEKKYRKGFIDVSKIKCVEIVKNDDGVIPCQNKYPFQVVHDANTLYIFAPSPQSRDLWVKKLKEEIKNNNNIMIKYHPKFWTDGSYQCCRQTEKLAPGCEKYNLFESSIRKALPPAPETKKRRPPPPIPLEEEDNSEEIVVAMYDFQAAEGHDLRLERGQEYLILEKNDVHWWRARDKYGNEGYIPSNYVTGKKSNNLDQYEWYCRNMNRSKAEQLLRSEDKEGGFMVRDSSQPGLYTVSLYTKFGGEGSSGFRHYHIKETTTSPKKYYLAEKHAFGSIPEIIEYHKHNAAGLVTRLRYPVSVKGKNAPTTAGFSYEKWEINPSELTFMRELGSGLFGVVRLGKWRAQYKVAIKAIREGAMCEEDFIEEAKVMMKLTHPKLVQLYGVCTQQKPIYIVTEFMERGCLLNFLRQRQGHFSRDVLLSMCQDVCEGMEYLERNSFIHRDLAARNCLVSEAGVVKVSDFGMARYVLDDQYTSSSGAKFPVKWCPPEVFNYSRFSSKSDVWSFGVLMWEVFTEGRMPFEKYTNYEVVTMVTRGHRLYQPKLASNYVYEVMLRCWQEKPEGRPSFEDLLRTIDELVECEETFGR
Briefly: Inhibition of a panel of kinases, in vitro HotSpot kinase assay: TEC. The experiment is classed as biochemical. As to conditions: D-compounds panel data; 1 μM ATP. How it is done: The degree of inhibition of a panel of kinases is determined using the in vitro HotSpot kinase assay (purified enzymes, ^33P-ATP, an appropriate substrate and 1 μM ATP).

Molecules are shown by their SMILES.

T1 sequence (Q06187 whole entry): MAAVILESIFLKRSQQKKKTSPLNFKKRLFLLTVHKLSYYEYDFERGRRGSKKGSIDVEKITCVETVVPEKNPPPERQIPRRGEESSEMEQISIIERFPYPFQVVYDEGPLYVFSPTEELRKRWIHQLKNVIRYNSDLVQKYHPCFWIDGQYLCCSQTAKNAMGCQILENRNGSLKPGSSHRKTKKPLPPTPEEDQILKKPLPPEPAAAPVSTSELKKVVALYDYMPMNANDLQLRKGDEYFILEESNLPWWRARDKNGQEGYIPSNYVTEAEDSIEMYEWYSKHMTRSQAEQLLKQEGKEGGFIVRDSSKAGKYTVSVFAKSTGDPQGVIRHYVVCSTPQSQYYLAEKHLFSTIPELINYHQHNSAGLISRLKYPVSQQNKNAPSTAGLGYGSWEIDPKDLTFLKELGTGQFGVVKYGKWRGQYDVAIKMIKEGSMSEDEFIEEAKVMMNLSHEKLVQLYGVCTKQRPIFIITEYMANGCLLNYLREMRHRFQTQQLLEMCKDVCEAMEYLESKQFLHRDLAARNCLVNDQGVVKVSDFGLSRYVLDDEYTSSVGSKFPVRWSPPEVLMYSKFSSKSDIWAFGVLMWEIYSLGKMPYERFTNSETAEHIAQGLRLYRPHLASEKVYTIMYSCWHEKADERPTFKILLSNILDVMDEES

Turning to `C[C@@H]1[C@H](NC(=O)c2ccc(C3CC3)cc2)CCCN1c1cnc(C(N)=O)c(Nc2cnn(C3CCNCC3)c2)n1` [Example D-280, 5-[(2R,3R)-3-(4-cyclopropylbenzamido)-2-methylpiperidin-1-yl]-3-{[1-(piperidin-4-yl)-1H-pyrazol-4-yl]amino}pyrazine-2-carboxamide], the IC50 at BTK-WT and at TEC was at most 10 nM throughout.
As to `C[C@@H]1[C@H](NC(=O)c2ccc(C3CC3)c(O)c2)CCCN1c1cnc(C(N)=O)c(Nc2cnn(C)c2)n1` [Example D-245, 5-[(2R,3R)-3-(4-cyclopropyl-3-hydroxybenzamido)-2-methylpiperidin-1-yl]-3-[(1-methyl-1H-pyrazol-4-yl)amino]pyrazine-2-carboxamide], the IC50 at BTK-WT and against TEC was at most 10 nM throughout.
Consider `C[C@@H]1[C@H](NC(=O)c2ccc(C3CC3)nc2)CCCN1c1cnc(C(N)=O)c(Nc2ccc(OC3CCOCC3)cc2)n1` [Example D-309, 5-[(2R,3R)-3-(6-cyclopropylpyridine-3-amido)-2-methylpiperidin-1-yl]-3-{[4-(oxan-4-yloxy)phenyl]amino}pyrazine-2-carboxamide], for which the concentration for half-maximal inhibition (IC50) at BTK-WT and on TEC was at most 10 nM throughout.
As for `C[C@@H]1[C@H](NC(=O)c2cc(C(C)(C)C)n[nH]2)CCCN1c1cnc(C(N)=O)c(Nc2cnn(C)c2)n1` [Example D-244, 5-[(2R,3R)-3-(3-tert-butyl-1H-pyrazole-5-amido)-2-methylpiperidin-1-yl]-3-[(1-methyl-1H-pyrazol-4-yl)amino]pyrazine-2-carboxamide], the results for the IC50 at BTK-WT and at TEC were at most 10 nM and 10 to 100 nM, respectively.
Regarding `CCn1cc(Nc2nc(N3CCC[C@@H](NC(=O)c4ccc(C5CC5)cc4)[C@H]3C)cnc2C(N)=O)cn1` [Example D-273, 5-[(2R,3R)-3-(4-cyclopropylbenzamido)-2-methylpiperidin-1-yl]-3-[(1-ethyl-1H-pyrazol-4-yl)amino]pyrazine-2-carboxamide], the IC50 at BTK-WT was at most 10 nM; on TEC, 10 to 100 nM.

The values are drawn from patent US20210070748A1, “INHIBITORS OF BRUTONS TYROSINE KINASE” (Pharmacyclics LLC, priority 2015, published 2021).
